This assay concerns Vα24i human NKT cell line. Put plainly: In vitro cytokine secretion assay using human NKT cell lines. Type of assay: cell-based. The conditions noted are these: CD14+ immature dendritic cells; 10 μg/ml glycolipid (1-10 μg/ml for 3-O-sulfo-α-galactosylceramide); 10 IU/ml IL-2. The method, then:
(§1) Human NKT cell lines, expressing the Vα24i T cell receptor as well as CD161, were generated as follows: Anti-CD161 monoclonal antibodies, and anti-CD14 monoclonal antibodies, each coupled to magnetic beads (Miltenyi biotec, Auburn, Calif.), were used sequentially to isolate CD161^+ cells and CD14^+ cells from leukopaks. Immature dendritic cells were generated from the CD14^+ cells after a two-day incubation in the presence of 300 U/ml GM-CSF (R&D systems, Minneapolis, Minn.) and 100 U/ml IL-4 (R&D systems, Minneapolis, Minn.). Following irradiation with 2000 rads, the immature dendritic cells were co-cultured with syngeneic CD161^+ cells in the presence of 100 ng/ml of alpha-galactosylceramide and 10 IU/ml of IL-2 (Invitrogen, Carlsbad Calif.) for 10 to 14 days. After stimulating the CD161^+ cells a second time with alpha-galactosylceramide-pulsed, irradiated immature dendritic cells, NKT cell lines were shown by flow cytometry to express both CD161^+ and V 24i TCR (99% purity).
IFN-γ and IL-4 secretion by the Vα 24i human NKT cell line was determined by ELISA (BD Pharmingen, San Diego, Calif.) after culture for 16 hours. For these assays, 1×10^5 Vα 24i human NKT cells were co-cultured with 4×10^5 irradiated, immature CD14^+ dendritic cells, in the presence of the glycolipid compounds at 10 μg/ml in a 96-well flat-bottom plate.
as §1, with “of 100-0.1” for “of 100”
In some cases, Hela cells were transfected with a human CD1d construct [Xing et al. 2005. Bioorg Med Chem 13: 2907], and were used to present the glycolipids, via pulsing with the respective compounds at the indicated concentration, to NKT lines.
IFN-γ secretion by the Vα 24i human NKT cell line was determined by ELISA (BD Pharmingen, San Diego, Calif.) after culture for 16 hours. For these assays, 1×10^5 Vα 24i human NKT cells were co-cultured with 4×10^5 irradiated, immature CD14^+ dendritic cells, in the presence of the glycolipid compounds at 10 μg/ml in a 96-well flat-bottom plate.

Regarding `CCCCCCCCCCCCCCCCCCCCCCCCCC(=O)N[C@@H](CO[C@H]1O[C@H](CO)[C@H](O)[C@H](O)[C@H]1O)[C@H](O)[C@H](O)CCCCCCCCCCCCCC` [α-GalCer, 2S,3S,4R-1-O(α-galactopyranosyl)-2(N-hexacosanoylamino)-1,3,4-octadecanetriol], the IFN-γ secretion result is “greater IFN-γ and IL-4 secretion”; the IL-4 secretion result is “greater IFN-γ and IL-4 secretion”.

Values taken from patent publication US20090117089A1, “GLYCOLIPIDS AND ANALOGUES THEREOF AS ANTIGENS FOR NK T CELLS” (The Rockefeller University, priority 2005, published 2009).
